# In US20110288086A1, “POLYCYCLIC QUINAZOLINES, PREPARATION THEREOF, AND USE THEREOF” (priority 2010, published 2011):
# Experiments:
# aurora kinase B = biological target: T1, aurora kinase B (Homo sapiens, UniProt Q96GD4); assay: Aurora kinase B inhibition in vitro (Invitrogen aurora kinase screening kit PV3174); assay type: biochemical
# T1 construct: purchased Invitrogen PV3174
# EGFR tyrosine kinase = EGFR tyrosine kinase (Homo sapiens, UniProt P00533); assay: EGFR tyrosine kinase inhibition in vitro (Invitrogen EGFR inhibitor screening kit PV3193)
# Excerpt: The inhibitory activities of EGFR tyrosine kinase in vitro
# Erlotinib hydrochloride was used as a positive control drug.
# [1] = test system: Hut78 T-Lymphocytic Leukemia cells; assay: Tumor cell IC50, CCK-8 kit, Hut78; assay type: cell-based; conditions: Homo sapiens, Hut-78 cells
# Excerpt: (§1) The inhibitory activities of the compounds on tumor cells (IC50) in vitro
# (§2) The IC50 (IC50, unit: μg/ml) values of the compounds on Hut78 T-Lymphocytic Leukemia cells, Jurkat E6-1 human T-cell lymphoma, PANC-1 human pancreatic cancer cells, A549 human lung cancer cells, K562 human chronicity marrow leukemic cells, Hep3B2. 1-7 human hepatoma carcinoma cells, MDA-MB-435s human breast carcinoma cells, Colo320 human rectal cancer cells, PC-3 human carcinoma of prostate, and HepG2 human hepatoma carcinoma cells were determined using a CCK-8 kit. Erlotinib hydrochloride was used as the positive control drug.
# [2] = test system: Jurkat E6-1 human T-cell lymphoma; assay: Tumor cell IC50, CCK-8 kit, Jurkat E6-1; assay type: cell-based; conditions: E6-1 cells
# Excerpt: as §1, §2
# [3] = test system: K562 human chronicity marrow leukemic cells; assay: Tumor cell IC50, CCK-8 kit, K562; assay type: cell-based
# Excerpt: as §1, §2
# [4] = test system: Hep3B2.1-7 human hepatoma carcinoma cells; assay: Tumor cell inhibition ratio, CCK-8 kit, Hep3B; conditions: read-out: Antiproliferative effect (inhibition ratio) Hep3B
# Excerpt: (§3) The inhibitory activities of the compounds on tumor cells in vitro
# [5] = test system: A549 human lung cancer cells; assay: Tumor cell IC50, CCK-8 kit, A549; assay type: cell-based
# Excerpt: as §1, §2
# [6] = test system: PANC-1 human pancreatic cancer cells; assay: Tumor cell IC50, CCK-8 kit, PANC-1; assay type: cell-based; conditions: PANC-1 cells
# Excerpt: as §1, §2
# [7] = test system: Colo320 human rectal cancer cells; assay: Tumor cell inhibition ratio, CCK-8 kit, Colo320; conditions: COLO 320, read-out: Antiproliferative effect (inhibition ratio) Colo320
# Excerpt: as §3
# [8] = test system: MDA-MB-435s human breast carcinoma cells; assay: Tumor cell IC50, CCK-8 kit, MDA-MB-435s; assay type: cell-based; conditions: 435s cells
# Excerpt: as §1, §2
# [9] = test system: PC-3 human carcinoma of prostate; assay: Tumor cell IC50, CCK-8 kit, PC-3; assay type: cell-based; conditions: PC-3 cells
# Excerpt: as §1, §2
# [10] = test system: K562 human chronicity marrow leukemic cells; assay: Tumor cell inhibition ratio, CCK-8 kit, K562; conditions: K562, read-out: Antiproliferative effect (inhibition ratio) K562
# Excerpt: as §3
# [11] = test system: PC-3 human carcinoma of prostate; assay: Tumor cell inhibition ratio, CCK-8 kit, PC-3; conditions: read-out: Antiproliferative effect (inhibition ratio) PC-3
# Excerpt: as §3
# [12] = test system: Hep3B2. 1-7 human hepatoma carcinoma cells; assay: Tumor cell IC50, CCK-8 kit, Hep3B; assay type: cell-based
# Excerpt: as §1, §2
# [13] = test system: A549 human lung cancer cells; assay: Tumor cell inhibition ratio, CCK-8 kit, A549; conditions: A549, read-out: Antiproliferative effect (inhibition ratio) A549
# Excerpt: as §3
# [14] = test system: Hut78 T-Lymphocytic Leukemia cells; assay: Tumor cell inhibition ratio, CCK-8 kit, Hut78; conditions: Homo sapiens, HuT78, read-out: Antiproliferative effect (inhibition ratio) Hut-78
# Excerpt: as §3
# [15] = test system: Colo320 human rectal cancer cells; assay: Tumor cell IC50, CCK-8 kit, Colo320; assay type: cell-based; conditions: COLO 320
# Excerpt: as §1, §2
# [16] = test system: PANC-1 human pancreatic cancer cells; assay: Tumor cell inhibition ratio, CCK-8 kit, PANC-1; conditions: PANC-1, read-out: Antiproliferative effect (inhibition ratio) PANC-1
# Excerpt: as §3
# [17] = test system: MDA-MB-435s human breast carcinoma cells; assay: Tumor cell inhibition ratio, CCK-8 kit, MDA-MB-435s; conditions: read-out: Antiproliferative effect (inhibition ratio) 435s
# Excerpt: as §3
# [18] = test system: Jurkat E6-1 human T-cell lymphoma; assay: Tumor cell inhibition ratio, CCK-8 kit, Jurkat E6-1; conditions: Jurkat E6.1, read-out: Antiproliferative effect (inhibition ratio) E6-1
# Excerpt: as §3
# Chain of EGFR tyrosine kinase (P00533 25-1210): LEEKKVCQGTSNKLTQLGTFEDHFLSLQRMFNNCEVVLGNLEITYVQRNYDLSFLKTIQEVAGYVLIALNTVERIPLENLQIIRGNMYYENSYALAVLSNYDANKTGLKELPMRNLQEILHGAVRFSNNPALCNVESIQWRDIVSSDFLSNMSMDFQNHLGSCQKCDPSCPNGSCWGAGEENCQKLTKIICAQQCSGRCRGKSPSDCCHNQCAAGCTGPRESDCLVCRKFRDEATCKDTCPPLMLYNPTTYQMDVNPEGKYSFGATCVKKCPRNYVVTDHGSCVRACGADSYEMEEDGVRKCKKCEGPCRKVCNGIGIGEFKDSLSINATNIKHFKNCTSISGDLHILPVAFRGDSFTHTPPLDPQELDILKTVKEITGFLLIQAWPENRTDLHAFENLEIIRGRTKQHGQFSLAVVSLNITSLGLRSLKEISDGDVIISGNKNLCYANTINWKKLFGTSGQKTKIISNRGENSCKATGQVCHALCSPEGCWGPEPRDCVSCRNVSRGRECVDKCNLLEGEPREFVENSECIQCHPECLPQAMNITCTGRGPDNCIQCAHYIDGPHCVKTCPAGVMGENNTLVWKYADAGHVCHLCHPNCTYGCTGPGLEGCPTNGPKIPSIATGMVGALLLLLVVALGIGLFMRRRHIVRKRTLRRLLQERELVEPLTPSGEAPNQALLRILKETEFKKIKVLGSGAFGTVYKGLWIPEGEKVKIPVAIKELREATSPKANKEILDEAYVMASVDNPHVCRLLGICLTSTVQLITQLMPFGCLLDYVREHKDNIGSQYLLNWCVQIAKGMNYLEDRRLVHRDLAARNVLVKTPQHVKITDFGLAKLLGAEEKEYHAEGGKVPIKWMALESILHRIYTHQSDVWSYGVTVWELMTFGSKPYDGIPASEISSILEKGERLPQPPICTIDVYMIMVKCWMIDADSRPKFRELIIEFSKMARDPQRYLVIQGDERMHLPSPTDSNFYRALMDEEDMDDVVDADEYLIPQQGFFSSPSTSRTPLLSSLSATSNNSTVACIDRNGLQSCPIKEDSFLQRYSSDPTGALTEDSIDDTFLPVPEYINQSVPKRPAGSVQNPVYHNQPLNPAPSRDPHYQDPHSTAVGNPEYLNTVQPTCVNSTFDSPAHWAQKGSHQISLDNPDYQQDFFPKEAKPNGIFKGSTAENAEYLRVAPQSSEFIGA
# T1 sequence (Q96GD4 whole entry): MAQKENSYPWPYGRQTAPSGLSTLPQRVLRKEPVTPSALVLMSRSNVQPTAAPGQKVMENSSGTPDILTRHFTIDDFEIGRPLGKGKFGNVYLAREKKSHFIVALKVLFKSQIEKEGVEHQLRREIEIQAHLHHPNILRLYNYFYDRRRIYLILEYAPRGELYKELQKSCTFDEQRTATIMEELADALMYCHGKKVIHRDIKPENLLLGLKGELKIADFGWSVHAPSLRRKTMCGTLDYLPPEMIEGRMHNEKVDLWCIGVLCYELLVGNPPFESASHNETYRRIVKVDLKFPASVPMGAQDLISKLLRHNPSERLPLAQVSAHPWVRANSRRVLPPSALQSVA
SMILES,The inhibition ratio of the compound on Aurora B(%) (aurora kinase B; 40 μM),The inhibition ratio of the compound on Aurora B(%) (aurora kinase B; 200 μM),The inhibition ratio of the compound on EGFR(%) (EGFR tyrosine kinase; 40 μM),The inhibition ratio of the compound on EGFR(%) (EGFR tyrosine kinase; 200 μM),IC50 [1] [µg/mL],IC50 [2] [µg/mL],IC50 [3] [µg/mL],inhibition at 10 µM [4] [%],inhibition at 100 µM [4] [%],IC50 [5] [µg/mL],IC50 [6] [µg/mL],inhibition at 10 µM [7] [%],IC50 [8] [µg/mL],IC50 [9] [µg/mL],inhibition at 10 µM [10] [%],inhibition at 100 µM [10] [%],inhibition at 10 µM [11] [%],inhibition at 100 µM [11] [%],IC50 [12] [µg/mL],inhibition at 10 µM [13] [%],further results
"COCCOc1cc2c(cc1OCCOC)C1=Nc3cccc(O)c3CN1C=N2 [Compound V-8, 9-hydroxy-2,3-bis(2-methoxyethoxy)-8H-quinazolino[4,3-b]quinazoline]",32.3,96.4,52.3,95.6,53.1,8.11,63.1,52.4,87.3,30,21.2,64.5,27.6,9.9,52.4,92.2,45.2,94,33.1,52.8,inhibition at 100 µM [7]: 94.8%; inhibition at 100 µM [13]: 80%; inhibition at 10 µM [14]: 35.6%; inhibition at 100 µM [14]: 75.9%; IC50 [15]: 29.8 µg/mL; inhibition at 10 µM [16]: 41.5%; inhibition at 100 µM [16]: 89.8%; inhibition at 10 µM [17]: 55%; inhibition at 100 µM [17]: 93.7%; inhibition at 10 µM [18]: 44%; inhibition at 100 µM [18]: 85.4%
"COCCOc1cc2c(cc1OCCOC)C1=Nc3cccc(NC(C)=O)c3CN1C=N2 [Compound V-11, N-{2,3-bis(2-methoxyethoxy)-8H-quinazolino[4,3-b]quinazoline}acetamide]",53.5,96.7,56.4,85.6,26.8,39.9,40.6,57.1,82.8,4.64,6.72,41.6,6.79,36.8,50.5,86,55.1,89.7,26.1,63.1,inhibition at 100 µM [7]: 96.3%; inhibition at 100 µM [13]: 99.2%; inhibition at 10 µM [14]: 31%; inhibition at 100 µM [14]: 72.8%; IC50 [15]: 34.6 µg/mL; inhibition at 10 µM [16]: 57.9%; inhibition at 100 µM [16]: 91.3%; inhibition at 10 µM [17]: 41%; inhibition at 100 µM [17]: 89.5%; inhibition at 10 µM [18]: 41.6%; inhibition at 100 µM [18]: 90.8%
"Br.COCCOc1cc2c(cc1OCCOC)C1=Nc3cccc(N)c3CN1C=N2 [Compound V-6, 9-amino-2,3-bis(2-methoxyethoxy)-8H-quinazolino[4,3-b]quinazoline hydrobromide trihydrate]",48.5,93.8,55.2,93.8,58.8,30.5,46.4,51.3,84.7,3.68,16.8,73.5,33.5,33,64.1,82.8,53.4,84.4,15.6,63,inhibition at 100 µM [7]: 99.2%; inhibition at 100 µM [13]: 97.3%; inhibition at 10 µM [14]: 69%; inhibition at 100 µM [14]: 91.9%; IC50 [15]: 29.8 µg/mL; inhibition at 10 µM [16]: 64.2%; inhibition at 100 µM [16]: 98.6%; inhibition at 10 µM [17]: 50.4%; inhibition at 100 µM [17]: 87%; inhibition at 10 µM [18]: 61.1%; inhibition at 100 µM [18]: 95.3%
"COCCOc1cc2c(cc1OCCOC)C1=Nc3ccc(F)c(Cl)c3CN1C=N2 [Compound V-13, 9-chloro-10-fluoro-2,3-bis(2-methoxyethoxy)-8H-quinazolino[4,3-b]quinazoline]",55.2,95.8,45.7,88.9,0.62,3.89,11,64.7,102,10.7,14.9,59.7,31.4,9.78,66.2,98.5,61.4,87.7,0.32,43,inhibition at 100 µM [13]: 91.1%; inhibition at 10 µM [14]: 66.2%; inhibition at 100 µM [14]: 101%; IC50 [15]: 9.88 µg/mL; inhibition at 10 µM [16]: 45.9%; inhibition at 100 µM [16]: 87.2%; inhibition at 10 µM [17]: 26.8%; inhibition at 100 µM [17]: 67.9%; inhibition at 10 µM [18]: 52.6%; inhibition at 100 µM [18]: 98%
